The supplement of paper PMC10307832

Legend:
Assay in all cases: relative viability (nuclei count vs DMSO), 5 days (fraction); higher = more cells survive
[1] = compound: O=C(CCCCCCNC(=O)c1cnc(N(c2ccccc2)c2ccccc2)nc1)NO [Ricolinostat] + C[C@]1(O)C[C@@H](c2nc(-c3ccc4ccc(-c5ccccc5)nc4c3)c3c(N)nccn32)C1 [Linsitinib] (partner 1 µM)
Outline: (§1)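 Relative viability divides the nuclei count in treated wells by that in vehicle wells. Lung cancer cell lines were seeded in 1536-well plates, dosed by pin tool the next day, and fixed and stained after 5 days in one step with final 0.05% Triton X-100, 1% formaldehyde and 1 ug/ml Hoechst. Dosing was a single drug or a fixed anchor-drug dose plus five library-drug doses (not always all listed) in √10 steps, and values are medians of duplicate plates imaged at 4×.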

[2] = compound: C1=CC=C(C(=C1)C2=CC=C(C=C2)C3=CSC4=C3C(=C(C(=O)N4)C#N)O)O + COc1cccc2cc(-c3nc([C@H]4CC[C@H](C(=O)O)CC4)n4ncnc(N)c34)[nH]c12 [OSI-027] (partner 0.5 µM)
Outline: as §1

TGX 221 + Crizotinib = compound: CC1=CN2C(=O)C=C(N=C2C(=C1)C(C)NC3=CC=CC=C3)N4CCOCC4 [TGX 221] + C[C@@H](Oc1cc(-c2cnn(C3CCNCC3)c2)cnc1N)c1c(Cl)ccc(F)c1Cl [Crizotinib] (partner 1 µM)
Outline: as §1

[3] = compound: C1=CC=C(C(=C1)C2=CC=C(C=C2)C3=CSC4=C3C(=C(C(=O)N4)C#N)O)O + CC1(C)CCC(c2ccc(Cl)cc2)=C(CN2CCN(c3ccc(C(=O)NS(=O)(=O)c4ccc(N[C@H](CCN5CCOCC5)CSc5ccccc5)c(S(=O)(=O)C(F)(F)F)c4)cc3)CC2)C1 [Navitoclax] (partner 0.5 µM)
Outline: as §1

Ricolinostat + Dasatinib = compound: O=C(CCCCCCNC(=O)c1cnc(N(c2ccccc2)c2ccccc2)nc1)NO [Ricolinostat] + Cc1nc(Nc2ncc(C(=O)Nc3c(C)cccc3Cl)s2)cc(N2CCN(CCO)CC2)n1 [Dasatinib] (partner 0.075 µM)
Outline: as §1

For NCI-H1792, the relative viability ([1]; first compound 0.08 µM) was 0.438, the relative viability ([1]; first compound 0.253 µM) was 0.545 and the relative viability ([1]; first compound 0.8 µM) was 0.43. For the same cell line, the relative viability ([1]; first compound 2.53 µM) was 0.428, the relative viability ([2]; first compound 0.253 µM) was 0.688 and the relative viability ([2]; first compound 2.53 µM) was 0.667. For the same cell line, the relative viability ([2]; first compound 8 µM) was 0.477, the relative viability (TGX 221 + Crizotinib; first compound 0.08 µM) was 0.883 and the relative viability (TGX 221 + Crizotinib; first compound 0.253 µM) was 1.08. It also gave a relative viability (TGX 221 + Crizotinib; first compound 0.8 µM) of 0.944, a relative viability (TGX 221 + Crizotinib; first compound 2.53 µM) of 0.948 and a relative viability (TGX 221 + Crizotinib; first compound 8 µM) of 0.857. For the same cell line, the relative viability ([3]; first compound 0.253 µM) was 0.441, the relative viability ([3]; first compound 0.8 µM) was 0.354 and the relative viability ([3]; first compound 2.53 µM) was 0.704. It also gave a relative viability ([3]; first compound 8 µM) of 0.276, a relative viability (Ricolinostat + Dasatinib; first compound 0.253 µM) of 0.829 and a relative viability (Ricolinostat + Dasatinib; first compound 0.8 µM) of 0.718. It also gave a relative viability (Ricolinostat + Dasatinib; first compound 2.53 µM) of 0.882.
